Results from US20110237632A1, “ANTIFOULING COMBINATION COMPRISING 4-BROMO-2-(4- CHLOROPHENYL)-5-(TRIFLUOROMETHYL)-1H-PYRROLE-3-CARBONITRILE” (priority 2008, published 2011).

Tested on: Tribonema sp. CCAP880/2
Experiment: Poison Plate Assay (algal growth inhibition, MIC and synergy index)
Type: cell-based
Details: 336 h, BG11 liquid medium, 24-well plates, 21° C., evaluation after 2 weeks of exposure, total ppm of combination at given ratio (I) to (II), read-out: MIC-values in ppm (minimum inhibitory concentration)
Experimental: • General procedure: to each well of a 24-well microtiter plate, 1990 μl BG11 medium containing the test compounds in one of the concentrations of a dose series is added. The liquid freshwater mineral medium is inoculated by adding an aliquot of an actively growing, 3 week old liquid BG11 culture of algae and incubated at 21° C., 65% relative humidity, 1000 Lux 16 hr/day. The growth is evaluated after two weeks. • Test compounds: 4-bromo-2-(4-chloro-phenyl)-5-(trifluoromethyl)-1H-pyrrole-3-carbonitrile as component (I) butylBIT as component (II); • Stock solution: 8000 and 80.000 ppm in DMSO
• Test combinations: • Concentrations: 1.6-1.2-0.9-0.68-0.51-0.38-0.29-0.21-0.16-0.12-0.09-0.07 ppm • Culture medium: algae: BG 11 liquid mineral medium • Experimental set up: 24-well plates • Species of algae: Tribonema sp. CCAP880/2 • Inoculum: algae: […] of a 1/10 dilution in BG 11 of a two week old culture • Culture conditions: 21° C., 65% relative humidity, 1000 lux, 16 hour photoperiod • Evaluation: algae: after 2 weeks of exposure
Synergism between component (I) and one of the components (II) was determined by a commonly used and accepted method described by Kull F. C. et al. in Applied Microbiology, 9, 538-541 (1961) using the Synergy Index, which is calculated as follows for two compounds A and B: […]

CCCCn1sc2ccccc2c1=O [(I) + (II) 0 + 100, 2-butyl-1,2-benzisothiazol-3(2H)one]
MIC: 2.1 µg/mL
